Earlier results on three molecules are cited in patent publication US5739336A, “1,3,8-triaza- and 3,8-diaza-1-oxaspiro [4,5] decane derivatives” (Syntex (U.S.A.) Inc., priority 1996, dated 1998).

SMILES strings stand for the structures.

In series [1] the test system is human volunteers. The following applies: for slow wave sleep (SWS): human/healthy volunteers.
The subject of series [2] is rats.
The subject of series [3] is rat models of addiction.
Series [4] has as its system chronic alcoholics.
For series [5], the system named is patients withdrawing from other drugs of abuse.
Series [6] has as its system migraine. The following applies: human, in vivo.
The test system of series [7] is rat. The settings on record: SI and elevated X-maze models.
In series [8] the test system is human volunteers.
For series [9], the system named is human volunteers. The source holds these as a separate data set.
Series [10] relates to abstaining alcoholics.
Series [11] has as its system rats. This is another data set of the same source.
For series [12], the system named is panic disorder patients or obsessive compulsive disorder patients.

On to `Cc1nc2sccn2c(=O)c1CCN1CCC(=C(c2ccc(F)cc2)c2ccc(F)cc2)CC1` [ritanserin], for which, in [1] (healthy volunteers), the sleep onset latency result is listed as “reduces sleep onset latency” and the subjective sleep quality result is given as “improves subjective sleep quality”. Moreover, the “slow wave sleep (SWS)” value in series [1] was “increases SWS”. Further, the alcohol preference entry in [2] is “reduces alcohol preference”. In series [3], the “cocaine and fentanyl preference” value was “reduces both cocaine and fentanyl preference”. Further, the alcohol intake result in [4] was “decreases alcohol intake”. Besides, the “usefulness in withdrawal from other drugs of abuse” value in series [5] is “is useful in patients withdrawing from other drugs of abuse”.
As to `O=C(c1ccc(F)cc1)C1CCN(CCn2c(=O)[nH]c3ccccc3c2=O)CC1` [ketanserin], in [2], the alcohol preference result is “has no affect on preference for alcohol”. For the same molecule, the “clinical effectiveness as antimigraine agent” value in [6] is “is not”.
As for `Clc1cccc(N2CCNCC2)c1` [mCPP, 1-(3-chlorophenyl)piperazine], in series [1] (human volunteers), the “rapid eye movement sleep” value was “reduces total sleep time, sleep efficiency, slow wave sleep (SWS) and rapid eye movement sleep”; the sleep efficiency entry was “reduces total sleep time, sleep efficiency”; the total sleep time result was “reduces total sleep time”. The “slow wave sleep (SWS)” value in series [1] is on record as “reduces total sleep time, sleep efficiency, slow wave sleep (SWS)”. The anxiogenic effects entry in series [7] is reported as “produces anxiogenic effects”. Also, the anxiety on administration entry in [8] is recorded as “causes anxiety”. The migraine-like headaches result in series [9] was “causes migraine-like headaches”. The craving for alcohol result in [10] is reported as “induces a craving for alcohol”. Also, the penile erections result in [11] is listed as “produces penile erections in rats”. In addition, the “levels of panic and/or anxiety” value in series [12] was “increases levels of panic and/or anxiety”.
